Reference: ChEMBL document CHEMBL4138191, “Organic arsenicals target thioredoxin reductase followed by oxidative stress and mitochondrial dysfunction resulting in apoptosis” (Eur J Med Chem, 2018)

Experiments:
HL-60 [1] = assay: Induction of mitochondrial membrane potential loss in human HL60 cells after 24 hrs by JC-1 staining-based flow cytometry (reference value: 28.6%); assay type: functional
HL-60 [2] = assay: Induction of mitochondrial membrane potential loss in human HL60 cells after 24 hrs by JC-1 staining-based flow cytometry (reference value: 24.3%); assay type: functional

SMILES: N#CC(C#N)=NNc1cccc(Cl)c1 [CARBONYL CYANIDE M-CHLOROPHENYLHYDRAZONE]
- Activity (HL-60 [1]): 62.4%
- Activity (HL-60 [2]): 85.8%
